Results: patent publication US20200048237A1, “A Free Base Oxazine Derivative in Crystalline Form” (NOVARTIS AG, priority 2017, published 2020)
Values belong to the compound of their own block, whether it stands above or below them.

Key:
[1] = Drug-drug interaction study in healthy volunteers: plasma PK of Compound 1 alone and with strong CYP3A4 inhibitor itraconazole; type: in vivo, human; conditions: with itraconazole 200 mg q.d. vs Compound 1 alone
[2] = Drug-drug interaction study in healthy volunteers: plasma PK of Compound 1 alone and with strong CYP3A4 inducer rifampicin; type: in vivo, human; conditions: with rifampicin 600 mg q.d. vs Compound 1 alone
[3] = Chemical stability of crystalline Form A exposed to high temperature and/or humidity (UPLC purity, XRPD solid form); type: physicochemical
Protocol: The stability of crystalline Form A was tested by exposing the crystalline material to high temperature and/or humidity for at least three weeks. After storage at high temperature and/or humidity, bulk crystalline material was sampled and dissolved in acetonitrile:water (80:20) and the purity analysed in a Waters Aquity UPLC using the following conditions: […]

Increase of mean AUC of Compound 1 [1]: 2-3 fold
Increase of mean Cmax of Compound 1 [1]: 25%
Decrease of mean AUC of Compound 1 [2]: 5-6 fold
Decrease of mean Cmax of Compound 1 [2]: 2.5 fold
SMILES: C[C@@]1(c2nc(NC(=O)c3ncc(C(F)(F)F)cc3Cl)ccc2F)CO[C@@](C)(C(F)(F)F)C(N)=N1 [Compound 1, N-(6-((3R,6R)-5-amino-3,6-dimethyl-6-(trifluoromethyl)-3,6-dihydro-2H-1,4-oxazin-3-yl)-5-fluoropyridin-2-yl)-3-chloro-5-(trifluoromethyl)picolinamide]

Solid State Form ([3]; RT, exposure time 0): Crystalline
Thermodynamic stability among polymorphs ([3]; compared with Form B, hydrate Form HA and amorphous form): most thermodynamically stable polymorph
SMILES: C[C@@]1(c2nc(NC(=O)c3ncc(C(F)(F)F)cc3Cl)ccc2F)CO[C@@](C)(C(F)(F)F)C(N)=N1 [Form A, N-(6-((3R,6R)-5-amino-3,6-dimethyl-6-(trifluoromethyl)-3,6-dihydro-2H-1,4-oxazin-3-yl)-5-fluoropyridin-2-yl)-3-chloro-5-(trifluoromethyl)picolinamide]

Solid form stability by XRPD analysis ([3]; same conditions as Table 12 (high temperature and/or humidity)): conversion into Form A occurred
SMILES: C[C@@]1(c2nc(NC(=O)c3ncc(C(F)(F)F)cc3Cl)ccc2F)CO[C@@](C)(C(F)(F)F)C(N)=N1 [Form B, N-(6-((3R,6R)-5-amino-3,6-dimethyl-6-(trifluoromethyl)-3,6-dihydro-2H-1,4-oxazin-3-yl)-5-fluoropyridin-2-yl)-3-chloro-5-(trifluoromethyl)picolinamide]
